These results are taken from patent US9879023B2, “Therapeutic compounds” (Gilead Sciences, Inc., priority 2011, dated 2018).

The subject of the test is HIV-IIIb (MT-4 cells). The experiment in a line: Test A: Antiviral Assays in MT4 Cells. The test is classed as cell-based. The conditions noted are these: Human immunodeficiency virus 1, IIIB, MT4, 120 h, MT-4 cells infected with HIV-IIIb (0.004 m.o.i.), 5 days incubation, CellTiter-Glo readout; read-out: EC50. As for the experimental part: Test A: Antiviral Assays in MT4 Cells
For the antiviral assay utilizing MT-4 cells, 0.4 μL of […] test concentration of 3-fold serially diluted compound in DMSO was added to 40 μL of cell growth medium (RPMI 1640, 10% FBS, 1% penicilline/Streptomycine, 1% L-Glutamine, 1% HEPES) in each well of 384-well assay plates (10 concentrations) in quadruplicate.
1 mL aliquots of 2×10e6 MT-4 cells are pre-infected for 1 and 3 hrs respectively, @37° C. with 25 uL (MT4) or of either cell growth medium (mock-infected) or a fresh 1:250 dilution of an HIV-IIIb concentrated ABI stock (0.004 m.o.i. for MT4 cells). Infected and uninfected cells are diluted in cell growth medium and 35 uL of 2000 (for MT4) cells is added to each well of the assay plates.
Assay plates were then incubated in a 37° C. incubator. After 5 days of incubation, 25 μl of 2× concentrated CellTiter-Glo™ Reagent (catalog # G7573, Promega Biosciences, Inc., Madison, Wis.) was added to each well of the assay plate. Cell lysis was carried out by incubating at room temperature for 2-3 min and then chemiluminescence was read using the Envision reader (PerkinElmer). […]

A word on the EC50: it is the concentration giving half of the maximal effect. As for `Cc1cc2nc(N(C)Cc3ccccc3)sc2c(-c2ccc3c4c(ccnc24)CCO3)c1[C@H](OC(C)(C)C)C(=O)O` [Compound 63, (2S)-2-(2-(benzyl(methyl)amino)-7-(2,3-dihydropyrano[4,3,2-de]quinolin-7-yl)-5-methylbenzo[d]thiazol-6-yl)-2-tert-butoxyacetic acid], the half-maximal effective concentration (EC50) came to 351 nM.

For `Cc1cc2nc(C3CC3)sc2c(-c2ccc3c4c(cccc24)CCO3)c1[C@H](OC(C)(C)C)C(=O)O` [Compound 85, (S)-2-tert-butoxy-2-((S)-2-cyclopropyl-7-(2,3-dihydrobenzo[de]chromen-7-yl)-5-methylbenzo[d]thiazol-6-yl)acetic acid], the 50% effective concentration (EC50) is 66.4 nM.
